Results taken from patent US11866437B1, “1,2-dioxo-2,3-dihydro-1H-pyrrolo[2,3-c]quinoline-7-carboxylic acid compounds as CK2 inhibitors” (KING FAISAL UNIVERSITY, priority 2023, dated 2024).
pIC50: −log10 of the molar value.

What was measured:
[1] = system: MCF7 (breast); assay: In vitro cytotoxic activity MTT assay, MCF7; assay type: cell-based; conditions: Homo sapiens; MCF7 cells, exposed for 96 hours; read-out: IC50, 50% inhibition of cell proliferation, MCF7 (breast)
Description: (§1) Compounds 1-16 were screened for their in vitro cytotoxic activity utilizing a 3-(4,5-dimethyl-thiazol-2-yl)-2,5-diphenyltetrazolium bromide (MTT) assay against selected cancer human cell lines consisting of PC3 (prostate), HCT116 (colon), A375 (melanoma), H1299 (lung), MIAPaCa-2 (pancreas), HL60 (leukemia), MCF7 (breast), MDA-MB-231 (breast) (T. Mosmann, J. Immunol. Meth., 1983, 65, 55-63). The cells were cultured at 37° C. in RMPI1640 medium supplemented with 10% fetal bovine serum, 50 IU/mL penicillin, and 50 μg/mL streptomycin in a 5% CO2 incubator. All cells were sub-cultured 3 times/week by trypsinisation. Viable cells were seeded and allowed to adhere for 12 h before a test drug was added in 96-well plates at an initial density of 1.0×10^5 cells/mL. Tumour cell lines were separately exposed to various concentrations of the tested compounds followed by incubation at a temperature of 37° C. during 96 h inside a medium of fresh RMPI 1640. Cells were subsequently incubated at 37° C. using MTT at 0.5 mg/mL during 4 h. After removal of supernatant, formazan crystals were dissolved in isopropanol and the optical density was measured at 570 nm. CX-4945 was used as a positive control.

[2] = system: H1299 (lung); assay: In vitro cytotoxic activity MTT assay, H1299; assay type: cell-based; conditions: Homo sapiens, NCI-H1299; H1299 cells, exposed for 96 hours; read-out: IC50, 50% inhibition of cell proliferation, H1299 (lung)
Description: as §1

[3] = target: T1, recombinant human CK2 (Homo sapiens, UniProt P68400); assay: CK2 Kinase Assay (33P-ATP, substrate peptide RRRDDDSDDD); assay type: biochemical; conditions: final ATP concentration 15 μM, 10 min at 30° C.; read-out: protein kinase CK2 IC50
T1 construct: purchased Millipore
T1 sequence (P68400 whole entry): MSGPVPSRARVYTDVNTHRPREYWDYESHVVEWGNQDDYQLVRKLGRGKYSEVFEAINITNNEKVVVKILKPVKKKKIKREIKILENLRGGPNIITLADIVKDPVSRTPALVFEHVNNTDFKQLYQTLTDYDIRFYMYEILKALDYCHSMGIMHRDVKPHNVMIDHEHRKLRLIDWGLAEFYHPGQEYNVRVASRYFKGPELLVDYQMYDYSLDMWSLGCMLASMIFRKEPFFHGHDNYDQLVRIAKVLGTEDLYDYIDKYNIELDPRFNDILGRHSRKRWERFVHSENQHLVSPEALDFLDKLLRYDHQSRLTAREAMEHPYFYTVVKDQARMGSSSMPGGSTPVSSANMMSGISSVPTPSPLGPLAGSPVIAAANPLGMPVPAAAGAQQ
T1 sequence (P67870 whole entry partner): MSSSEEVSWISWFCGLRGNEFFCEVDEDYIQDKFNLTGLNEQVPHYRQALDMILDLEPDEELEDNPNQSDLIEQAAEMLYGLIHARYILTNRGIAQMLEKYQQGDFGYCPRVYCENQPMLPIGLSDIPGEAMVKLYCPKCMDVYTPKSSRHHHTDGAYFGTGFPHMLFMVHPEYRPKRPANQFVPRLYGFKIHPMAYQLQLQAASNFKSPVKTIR
Description: CK2 Kinase Assay was conducted using the protocol as described in Pierre F. et al; J. Med. Chem. 2011, 54, 635-654. The tested compounds in aqueous solution were added at a volume of 10 μL to a reaction mixture comprising 10 μL of assay dilution buffer (ADB; 20 mM MOPS, pH 7.2, 25 mM β-glycerol phosphate, 5 mM EGTA, 1 mM sodium orthovanadate, and 1 mM dithiothreitol), 10 μL of substrate peptide (RRRDDDSDDD, dissolved in ADB at a concentration of 1 mM), 10 μL of recombinant human CK2 (RR-holoenzyme, 25 ng dissolved in ADB; Millipore). Reactions were initiated by the addition of 10 μL of ATP solution (90% 75 mMMgCl2, 75 μM ATP (final ATP concentration:15 μM) dissolved in ADB; 10% [γ-33P] ATP (stock 1 mCi/100 μL; 3000 Ci/mmol (Perkin-Elmer) and maintained for 10 min at 30° C. The reactions were quenched with 100 μL of 0.75% phosphoric acid and then transferred to and filtered through a phosphor cellulose filter plate (Millipore). After washing each well five times with 0.75% phosphoric acid, the plate was dried under vacuum for 5 min and, following the addition of 15 μL of scintillation fluid to each well, the residual radioactivity was measured using a Wallac […] counter. The IC50 values were derived from eight concentrations of test inhibitors.

[4] = system: A375 (melanoma); assay: In vitro cytotoxic activity MTT assay, A375; assay type: cell-based; conditions: Homo sapiens, A-375; A375 cells, exposed for 96 hours; read-out: IC50, 50% inhibition of cell proliferation, A375 (melanoma)
Description: as §1

[5] = system: HL60 (leukemia); assay: In vitro cytotoxic activity MTT assay, HL60; assay type: cell-based; conditions: Homo sapiens, HL-60; HL60 cells, exposed for 96 hours; read-out: IC50, 50% inhibition of cell proliferation, HL60 (leukemia)
Description: as §1

[6] = system: MDA-MB-231 (breast); assay: In vitro cytotoxic activity MTT assay, MDA-MB-231; assay type: cell-based; conditions: Homo sapiens; MDA-MB-231 cells, exposed for 96 hours; read-out: IC50, 50% inhibition of cell proliferation, MDA-MB-231 (breast)
Description: as §1

[7] = system: PC3 (prostate); assay: In vitro cytotoxic activity MTT assay, PC3; assay type: cell-based; conditions: Homo sapiens, PC-3; PC3 cells, exposed for 96 hours; read-out: IC50, 50% inhibition of cell proliferation, PC3 (prostate)
Description: as §1

[8] = system: MIAPaCa-2 (pancreas); assay: In vitro cytotoxic activity MTT assay, MIAPaCa-2; assay type: cell-based; conditions: Homo sapiens, MIA PaCa-2; MIAPaCa-2 cells, exposed for 96 hours; read-out: IC50, 50% inhibition of cell proliferation, MIAPaCa-2 (pancreas)
Description: as §1

[9] = system: HCT116 (colon); assay: In vitro cytotoxic activity MTT assay, HCT116; assay type: cell-based; conditions: Homo sapiens, HCT-116; HCT116 cells, exposed for 96 hours; read-out: IC50, 50% inhibition of cell proliferation, HCT116 (colon)
Description: as §1

With O=C1Nc2c(Nc3cccc(Cl)c3)nc3cc(C(=O)O)ccc3c2C1=O [Compound 1, 4-((3-chlorophenyl)amino)-1,2-dioxo-2,3-dihydro-1H-pyrrolo[2,3-c]quinoline-7-carboxylic acid] as the compound, how does the pIC50 [1] read?
The pIC50 was 5.29.

What about the pIC50 [2] of the same compound?
The pIC50 was 5.80.

And the pIC50 [3]?
Its pIC50 is 7.72.

And the pIC50 [4]?
The pIC50 was 5.64.

What about the pIC50 [5] of the same compound?
The pIC50 was 5.54.

What about the pIC50 [6] of the same compound?
The pIC50 was 5.42.

What about the pIC50 [7] of the same compound?
The pIC50 was 6.05.

What about the pIC50 [8] of the same compound?
The pIC50 was 5.82.

What about the pIC50 [9] of the same compound?
The pIC50 was 5.96.
